Like-named read-outs stand apart in the source and are kept apart here.
Molecular target: T1, pSTAT1 (Tyr-701) (Homo sapiens, UniProt P42224)
T1 construct: endogenous in cells; host or cells: Kasumi-1
T1 sequence (P42224 1-750): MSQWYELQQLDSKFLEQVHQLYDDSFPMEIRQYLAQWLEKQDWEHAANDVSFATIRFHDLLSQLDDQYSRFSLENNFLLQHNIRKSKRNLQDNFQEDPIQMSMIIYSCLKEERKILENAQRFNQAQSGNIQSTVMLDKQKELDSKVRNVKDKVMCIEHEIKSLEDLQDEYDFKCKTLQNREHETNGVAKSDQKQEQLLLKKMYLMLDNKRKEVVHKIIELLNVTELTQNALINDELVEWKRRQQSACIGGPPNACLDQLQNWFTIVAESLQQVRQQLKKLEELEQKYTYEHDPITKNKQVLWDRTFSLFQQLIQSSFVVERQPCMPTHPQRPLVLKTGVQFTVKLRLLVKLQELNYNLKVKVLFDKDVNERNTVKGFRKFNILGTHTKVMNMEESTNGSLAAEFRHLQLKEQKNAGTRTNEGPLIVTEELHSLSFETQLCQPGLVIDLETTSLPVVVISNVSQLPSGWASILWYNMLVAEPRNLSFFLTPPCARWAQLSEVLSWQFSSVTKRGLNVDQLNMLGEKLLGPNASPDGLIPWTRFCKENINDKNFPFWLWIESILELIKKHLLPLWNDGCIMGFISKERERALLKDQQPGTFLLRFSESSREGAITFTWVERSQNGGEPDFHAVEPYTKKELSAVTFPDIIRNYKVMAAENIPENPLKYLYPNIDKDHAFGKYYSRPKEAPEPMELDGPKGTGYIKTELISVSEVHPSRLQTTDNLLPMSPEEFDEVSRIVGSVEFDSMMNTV
Assay: Luminex bead-based assay, G-CSF-induced pSTAT1 in Kasumi-1 cells
Type: cell-based
Experimental: The equilibrium binding levels obtained ± compound were normalized (resonance obtained in the presence of compound ÷ the resonance obtained in the absence of compound × 100) and plotted against Log [nM] […] B. Inhibition of ligand-stimulated STAT phosphorylation, measured by phosphoflow. Serum-starved (1 hour) Kasumi-1 cells, pre-incubated with compound/DMSO (1 hour), were treated with G-CSF (10 ng/ml, 15 min, left two panels) or IFN-γ (10ng/ml, 15 min, right panel). Cells were permeabilized and stained with Alexa647-pSTAT3, and PE-pSTAT1 antibodies and analyzed on BD LSR2. FCS files were uploaded to Cytobank for pSTAT3 and pSTAT1 quantitation. Histograms depicting pSTAT3 and pSTAT1 levels are shown. C. Mean fluorescence (pSTAT3/1) levels were plotted as function the Log [M] compound, and IC50 calculated using GraphPad. […] D. Inhibition of ligand-stimulated STAT phosphorylation, measured by Luminex. Serum-starved (1 hour) Kasumi-1 cells, pre-incubated with compound/DMSO (0/0.1/0.3/1/3/10/100 μM, 1 hour), were treated with G-CSF (10 ng/ml, 15′). Total protein extracts of cells were assayed for pSTAT3, pSTAT1, and GAPDH levels by Luminex. […] These values were plotted as a function of Log [M] compound, and IC50 values calculated using GraphPad. […]
for analysis as described below. were determined by plotting % maximum response as a 3-D pharmacophore generation function of log concentration of compound and fitting the Each molecular chemical feature, including experimental points to a competitive binding model using hydrogen bond donor, hydrogen bond acceptor, positive a four parameter logistic equation: R = Rhigh − (Rhigh − R low)/ (1 + conc/A1)^A2, where R = percent response at and negative ionizable group, and hydrophobic region, inhibitor concentration, R = percent response with no was generated using the LigandScout application compound, R= percent response at highest compound high framework and projected into 3-D space. concentration, A2 = fitting parameter (slope) and A1 = low Feature-pairing IC50 (BIAevaluation Software version 4.1). […]

## COc1ccc(S(=O)(=O)Nc2cc(-c3c(O)ccc4ccccc34)c(O)c3ccccc23)cc1 [Compound C188-9]
Figure 2D, Kasumi-1, G-CSF, read-out: Luminex pSTAT1 (Tyr-701) IC50, representative experiment
  IC50: 3 µM
Kasumi-1, mean, n ≥ 2, read-out: G-CSF Induced Phosphorylation (Luminex) pSTAT1 IC50
  IC50: 4.1 ± 3.3 µM

Source: PMC5041982, “Small-molecule inhibition of STAT3 in radioresistant head and neck squamous cell carcinoma” (Oncotarget, 2016)
